Assay results reported in PubChem BioAssay AID256 (DTP/NCI, 2004).
Toxic doses and inconclusive results are not listed.

System: CD2F1 mice, L1210 leukemia ip, survival T/C
Assay: NCI In Vivo Anticancer Drug Screen. Data for tumor model L1210 Leukemia (intraperitoneal) in CD2F1 (CDF1) mice
Conditions: higher = longer survival
Method in brief: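 Implant tumor; dose compound or vehicle; measure endpoint in both groups; report treated divided by control.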

O=C(Nc1ccc(C2=NCCN2)cc1)c1ccc(C(=O)Nc2ccc(C3=NCCN3)cc2)c([N+](=O)[O-])c1
T/C (endpoint: mean survival time, dose: 5.0 mg/kg/injection, schedule: Q01DX007 (ip), vehicle: saline): 124 % of control | T/C (endpoint: mean survival time, dose: 5.0 mg/kg/injection, schedule: Q03DX003 (ip), vehicle: saline): 107 % of control | T/C (endpoint: mean survival time, dose: 5.0 mg/kg/injection, schedule: Q04DX003 (ip), vehicle: saline): 112 % of control | T/C (endpoint: mean survival time, dose: 8.0 mg/kg/injection, schedule: Q01DX009 (ip), vehicle: saline): 158 % of control | T/C (endpoint: mean survival time, dose: 10.0 mg/kg/injection, schedule: Q01DX007 (ip), vehicle: saline): 155 % of control | T/C (endpoint: mean survival time, dose: 10.0 mg/kg/injection, schedule: Q01DX009 (ip), vehicle: saline): 163 % of control | T/C (endpoint: mean survival time, dose: 10.0 mg/kg/injection, schedule: Q03DX003 (ip), vehicle: saline): 113 % of control | T/C (endpoint: mean survival time, dose: 10.0 mg/kg/injection, schedule: Q04DX003 (ip), vehicle: saline): 112 % of control | T/C (endpoint: mean survival time, dose: 16.0 mg/kg/injection, schedule: Q01DX009 (ip), vehicle: saline): 271 % of control | T/C (endpoint: mean survival time, dose: 20.0 mg/kg/injection, schedule: Q01DX007 (ip), vehicle: saline): 181 % of control | T/C (endpoint: mean survival time, dose: 20.0 mg/kg/injection, schedule: Q01DX009 (ip), vehicle: saline): 225 % of control | T/C (endpoint: mean survival time, dose: 20.0 mg/kg/injection, schedule: Q04DX003 (ip), vehicle: saline): 115 % of control

COc1ccc(Cc2ccc(OC)c(OC)c2)cc1OC
T/C (endpoint: median survival time, dose: 25.0 mg/kg/injection, schedule: Q01DX005 (ip), vehicle: saline with Tween-80): 96 % of control | T/C (endpoint: median survival time, dose: 25.0 mg/kg/injection, schedule: Q04DX003 (ip), vehicle: saline): 100 % of control | T/C (endpoint: median survival time, dose: 50.0 mg/kg/injection, schedule: Q01DX005 (ip), vehicle: saline with Tween-80): 98 % of control | T/C (endpoint: median survival time, dose: 50.0 mg/kg/injection, schedule: Q04DX003 (ip), vehicle: saline): 100 % of control | T/C (endpoint: median survival time, dose: 100.0 mg/kg/injection, schedule: Q01DX005 (ip), vehicle: saline with Tween-80): 98 % of control | T/C (endpoint: median survival time, dose: 100.0 mg/kg/injection, schedule: Q04DX003 (ip), vehicle: saline): 100 % of control | T/C (endpoint: median survival time, dose: 200.0 mg/kg/injection, schedule: Q01DX005 (ip), vehicle: saline with Tween-80): 97 % of control | T/C (endpoint: median survival time, dose: 200.0 mg/kg/injection, schedule: Q04DX003 (ip), vehicle: saline): 106 % of control | T/C (endpoint: median survival time, dose: 400.0 mg/kg/injection, schedule: Q01DX005 (ip), vehicle: saline with Tween-80): 95 % of control | T/C (endpoint: median survival time, dose: 400.0 mg/kg/injection, schedule: Q04DX003 (ip), vehicle: saline): 100 % of control

O=c1[nH]cc(S(=O)(=O)Nc2ccccc2)c(=O)[nH]1
T/C (endpoint: mean survival time, dose: 100.0 mg/kg/injection, schedule: Q01DX001 (ip), vehicle: saline with Tween-80): 88 % of control | T/C (endpoint: mean survival time, dose: 400.0 mg/kg/injection, schedule: Q01DX001 (ip), vehicle: saline with Tween-80): 96 % of control

O=c1c(O)c(-c2ccc(O)c(O)c2)oc2cc(O)cc(O)c12
T/C (endpoint: mean survival time, dose: 100.0 mg/kg/injection, schedule: Q01DX001 (ip), vehicle: saline): 100 % of control | T/C (endpoint: mean survival time, dose: 200.0 mg/kg/injection, schedule: Q01DX001 (ip), vehicle: saline): 100 % of control | T/C (endpoint: mean survival time, dose: 200.0 mg/kg/injection, schedule: Q01DX009 (ip), vehicle: saline with Tween-80): 90 % of control | T/C (endpoint: mean survival time, dose: 400.0 mg/kg/injection, schedule: Q01DX001 (ip), vehicle: saline): 100 % of control | T/C (endpoint: mean survival time, dose: 400.0 mg/kg/injection, schedule: Q01DX009 (ip), vehicle: saline with Tween-80): 96 % of control | T/C (endpoint: mean survival time, dose: 800.0 mg/kg/injection, schedule: Q01DX009 (ip), vehicle: saline with Tween-80): 87 % of control

N=C(N)SSCc1ccco1
T/C (endpoint: mean survival time, dose: 5.0 mg/kg/injection, schedule: Q04DX002 (ip), vehicle: saline with Tween-80): 96 % of control | T/C (endpoint: mean survival time, dose: 10.0 mg/kg/injection, schedule: Q04DX002 (ip), vehicle: saline with Tween-80): 103 % of control | T/C (endpoint: mean survival time, dose: 20.0 mg/kg/injection, schedule: Q04DX002 (ip), vehicle: saline with Tween-80): 100 % of control
